Data as given in patent US20250034186A1, “ANTIVIRAL COMPOUNDS” (priority 2020, published 2025).
Values after ≈ are worked out from the molar mass of the structure shown. Read-outs that look alike come from different tables or passages of the source.

What was measured:
[1] = Thermodynamic solubility assay; assay type: physicochemical; conditions: thermodynamic from solid, room temperature, four days
Experimental: Excess solid compound was used to saturate aqueous samples of the compounds. The tubes were placed on an agitator set at 1000 rpm and remained under constant agitation for four days. Following agitation, it was confirmed that excess solids were present in all tubes. The tubes were centrifuged at 10,000 rpm for 5 minutes to remove excess solids and the supernatant was transferred to a new vial. Concentration analysis was determined by UPLC and quantified against internal standards.

[2] = tested on: HCV replicon 2A; assay: HCV Rep 2A EC50; assay type: cell-based; conditions: for EC50: Hepatitis C virus, 72 h, HCV replicon cells, 3 days
Experimental: (§1) Compounds were serially diluted in ten steps of 1:3 dilutions in 384-well plates. All serial dilutions were performed in four replicates per compound within the same 384-well plate. […] To each well of a black polystyrene 384-well plate (Greiner Bio-one, Monroe, NC), 90 μL of cell culture medium (without Geneticin) containing 2000 suspended HCV replicon cells was added with a Biotek μFlow workstation. For compound transfer into cell culture plates, 0.4 μL of compound solution from the compound serial dilution plate was transferred to the cell culture plate on a Biomek FX workstation. The DMSO concentration in the final assay wells was 0.44%. The plates were incubated for 3 days at 37° C. with 5% CO2 and 85% humidity. The HCV replicon assay was a multiplex assay, able to assess both cytotoxicity and antireplicon activity from the same well. The CC50 assay was performed first. The media in the 384-well cell culture plate was aspirated, and the wells were washed four times with 100 μL of PBS each, using a Biotek ELX405 plate washer. A volume of 50 μL of a solution containing 400 nM calcein AM (Anaspec, Fremont, CA) in 1×PBS was added to each well of the plate with a Biotek μFlow workstation. The plate was incubated for 30 min at room temperature before the fluorescence signal (excitation 490 nm, emission 520 nm) was measured with a Perkin-Elmer Envision plate reader. The EC50 assay was performed in the same wells as the CC50 assay. The calcein-PBS solution in the 384-well cell culture plate was aspirated with a Biotek ELX405 plate washer. A volume of 20 μL of Dual-Glo luciferase buffer (Promega, Madison, WI) was added to each well of the plate with a Biotek μFlow Workstation. The plate was incubated for 10 min at room temperature. […] The plate was then incubated at room temperature for 10 min before the luminescence signal was measured with a Perkin-Elmer Envision Plate Reader.

[3] = PHH cytotoxicity assay; assay type: cell-based; conditions: human, fresh primary hepatocytes (PHH), daily replacement
Experimental: Three-fold serial dilutions of the compound of Formula I and compounds 1, 2 and 6 were prepared in duplicate in 96-well plates starting at a concentration of 50 or 100 μM. Fresh human hepatocytes were ordered in a 96-well plate format from BioIVT (Baltimore, Maryland, Cat #F/M91565) with a Matrigel overlay or Invitrogen (Durham, North Carolina, Cat #HMFY96) with a Geltrex overlay. Donor profiles were limited to 4-65-year old with minimal alcohol consumption. PHH cells were allowed to recover 4-24 hours in complete medium with added supplement supplied by the vendor at 37° C. in a 5% CO2 incubator with 90% humidity before treated with compounds. Serial-diluted compounds and complete medium were replaced (130 μL/well) daily for 5 days, with final amount of DMSO equal to 0.5%. On Day 5, medium was removed from the assay plates and cell viability was determined by the addition of 100 μL Cell-Titer Glo viability reagents (Promega, Madison, WI, Cat #G7573) added to each well. Following 5-10 minutes incubation at room temperature, luminescence signal was quantified on a Victor Luminescence plate reader (Perkin-Elmer, Waltham, MA).

[4] = in vitro; assay type: cell-based; conditions: human, read-out: CC50 GALPC3
Experimental: Compounds were tested in a high-throughput 384-well assay format for cytotoxicity in galactose-adapted PC3 cells (human prostate cancer cell line). Cells were diluted in media (DMEM (11966), 10% FBS, 1% NEAA, 0.2% Galactose, 1% Pyruvate, 1% Glutamax, 1% PSG) to 16.6K cells/mL and plated at 90 uL/well into 384 well poly-D-lysine coated assay plates and placed in an incubator at 37° C. and 5% CO2. Compounds were serially diluted (1:3) in 100% DMSO in 384-well plates in quadruplicate. DMSO and 2 mM Puromycin were included as negative and positive controls respectively. 24 hours after cell plating, a 384 channel pipettor was used to transfer 0.4 uL from the compound plate to the assay plate. Assay plates are returned to the incubator. After 5 days, assay plates are washed with 80 uL/well of PBS before addition of 20 μL of Cell Titer Glo. Assay plates are read on the Envision plate reader. […] CC50 values were calculated in Accord (on-line tool) using a one-site dose-response model to generate sigmoidal curve fits.

[5] = tested on: HCV replicon 1B; assay: HCV Rep 1B EC50; assay type: cell-based; conditions: for EC50: Hepatitis C virus, 72 h, HCV replicon cells, 3 days
Experimental: as §1

[6] = pH 7, aqueous buffer, phosphate buffered saline solution, read-out: pH 7 Solubility
[7] = simulated gastric fluid, 10 mM hydrochloric acid (pH 2.0), read-out: pH 2 Solubility

SMILES | solubility thermodynamic at 4 days [1, 6] [µg/mL] | solubility thermodynamic at 4 days [1, 7] [µg/mL] | times more potent relative to compound 2, HCV Rep 2A ([2]; EC50 ratio vs compound 2) [times] | EC50 [2] [nM] | CC50 at 5 days [3] [nM] | CC50 at 5 days [4] [nM] | times more potent relative to compound 2, HCV Rep 1B ([5]; EC50 ratio vs compound 2) | EC50 [5] [nM]
C[C@H](N[P@](=O)(OC[C@@]1(C#N)O[C@@H](c2ccc3c(N)ncnn23)[C@H](O)[C@@H]1O)Oc1ccccc1)C(=O)OC1CCCCC1 [Formula I, cyclohexyl ((S)-(((2R,3S,4R,5S)-5-(4-aminopyrrolo[2,1-f][1,2,4]triazin-7-yl)-2-cyano-3,4-dihydroxytetrahydrofuran-2-yl)methoxy)(phenoxy)phosphoryl)-L-alaninate] | 131 | 4120 | ~1.4 | 1270 | 21200 | > 44400 | about 3.5 times | 793
CCC(CC)COC(=O)[C@H](C)N[P@](=O)(OC[C@@]1(C#N)O[C@@H](c2ccc3c(N)ncnn23)[C@H](O)[C@@H]1O)Oc1ccccc1 [Compound 6, 2-ethylbutyl ((S)-(((2R,3S,4R,5S)-5-(4-aminopyrrolo[2,1-f][1,2,4]triazin-7-yl)-2-cyano-3,4-dihydroxytetrahydrofuran-2-yl)methoxy)(phenoxy)phosphoryl)alaninate] | 16 (≈ 0.0266 mM) | 3790 (≈ 6.29 mM) |  |  | 14100 | > 83500 |  | 
CCC(CC)COC(=O)[C@H](C)NP(=O)(OC[C@@]1(C#N)O[C@@H](c2ccc3c(N)ncnn23)[C@H](O)[C@@H]1O)Oc1ccccc1 (stereo partly shown) [Compound 2, reference compound] | 18 (≈ 0.0299 mM) | 3720 (≈ 6.17 mM) |  | 1830 |  |  |  | 2780
